Assay results: article PMC10744612, “Genome Mining Reveals a Surprising Number of Sugar Reductases in Aspergillus niger” (Journal of Fungi, 2023)
Where two headings read alike, the source gives them in different places.

Experiments:
Test in all cases: NADPH oxidation at […] nm, Michaelis-Menten fit
Assay type in all cases: biochemical, Aspergillus niger
Conditions in all cases: 0.2 mM NADPH, HEPES pH 7.0
[1] = tested on: T1, XyrB
T1 construct: recombinant plasmid from a previous study, His-tag purified from E. coli

[2] = tested on: T2, SrdB
T2 construct: cDNA in pET-28a(+), His-tag purified from E. coli

[3] = tested on: T3, SrdE
T3 construct: cDNA in pET-28a(+), His-tag purified from E. coli

OC1OC[C@H](O)[C@H](O)[C@H]1O (stereo partly drawn) [L-arabinose]
Km ([1]; read-out: L-arabinose / Km): 12.3 mM | Km ([2]; read-out: L-arabinose / Km): 4.5 mM | Km ([3]; read-out: L-arabinose / Km): 4.3 mM

OC1OC[C@@H](O)[C@H](O)[C@H]1O (stereo partly drawn) [D-xylose]
Km ([1]; read-out: D-xylose / Km): 3 mM | Km ([2]; read-out: D-xylose / Km): 2.8 mM | Km ([3]; read-out: D-xylose / Km): 1.1 mM
